This is an account of results in US20120251584A1, “Combination pharmaceutical composition and methods of treating diseases or conditions associated with the cardiovascular system” (priority 2010, published 2012).

The subject of assay [1] is Wistar rats with L-NAME endothelial dysfunction. The assay is described as follows: Correction of endothelial dysfunction simulated by L-NAME in rats. Format: in vivo, rat. The protocol: Wistar rats weighed 250-300 g were divided into 4 groups. The 1st group received distilled water 9 ml/kg/day (every day, gastrointestinal introduction). […] The third group received L-NAME (12.5 mg/kg) in combination with a mixture of C12, C30, and C200 homeopathic dilutions of polyclonal rabbit antibodies to human endothelial NO synthase at 9 ml/kg/day. The 4th group received L-NAME ([…]) in combination with a mixture of C12, C30, and C200 homeopathic dilutions of polyclonal rabbit antibodies to human endothelial NO synthase at 9 ml/kg/day and mixture of C12, C30, C200 homeopathic dilutions of polyclonal rabbit antibodies to a C-terminal fragment of AT1 receptor of angiotensin II at 9 ml/kg/day.
Endothelial dysfunction was simulated by introducing L-NAME at […] in the course of 28 days. On day 29 from the beginning of the experiment, under anesthesia (sodium thiopental at 50 mg/kg), a catheter was inserted into the left carotid artery to register parameter of arterial pressure (AP). Bolus introduction of the pharmacological agent was made into right femoral vein. The following parameters were measured: systolic arterial pressure (SAP), diastolic arterial pressure (DAP), and frequency of heart beat, which were measured in real time by sensor TSD104A measurement apparatus MP100 made by Biopac System, Inc., USA. The following functional probes were used: endothelium-dependent vasodilation (EDV), intra-vein introduction of acetylcholine (AC) in the dose of 40 μg/kg, endothelium-independent vasodilation (EIV) via intravein introduction of sodium nitroprusside at 30 μ/kg.
The degree of endothelial dysfunction was evaluated via the coefficient of endothelial dysfunction as the ratio of the area of the triangle under the trend of reaction of stabilization of arterial pressure (AP) as a response to introduction of nitroprusside to the area of the triangle under the trend of reaction of stabilization of arterial pressure as a response to introduction of acetylcholine.

The test system of assay [2] is NISAG line male rats with hereditary stipulated stress-sensitive arterial hypertension. Put plainly: NISAG rat hypertension model, systolic blood pressure. Format: in vivo. The procedure: Investigations were conducted on 50 NISAG line male rats (weight 300 g, age 4 months) with hereditary stipulated stress-sensitive arterial hypertension, which were divided into 5 groups by 10 animals each.
Two times a week, 2 to 6 hours after administration of ULD antibodies and losartan, systolic blood pressure (SBP) was measured by an indirect method in a tail artery (using a cuff).

For assay [3], the system named is female Wistar rats with chronic heart failure (CHF). The assay is described as follows: Chronic heart failure (CHF) model induced by isadrine in rats: electrocardiogram, rheogram, exercise tolerance. To be noted: change in % on Day 28 vs. Day 7, gastric gavage.
Method: Study of the efficacy of the combined drug based on ultra-low doses (ULD), i.e. the activated-potentiated solutions as described above, of antibodies to a C-terminal fragment of angiotensin II AT1 receptor and antibodies to endothelial NO synthase (mixture of homeopathic dilutions C12, C30 and C200) in chronic heart failure (CHF) was conducted in 75 female Wistar rats (4-5 months old, weighing 220-250 g).
For chronic heart failure modeling all rats were receiving isadrine (isoproterenol hydrochloride, Sigma, Germany) 80 mg/kg twice with 24-hour interval. Animals (15 per group) were receiving the following drugs by gastric gavage: group 1 —7.5 mL/kg of ULD of antibodies against a C-terminal fragment of angiotensin II AT1 receptor (mixture of homeopathic dilutions C12, C30 and C200), group 2 —7.5 mL/kg of ULD of anti-endothelial NO synthase antibodies (mixture of homeopathic dilutions C12, C30 and C200), group 3 —15 mL/kg of combined drug (mixture of homeopathic dilutions C12, C30 and C200), group 4 —7.5 mL/kg (dose of 10 mg/kg) of losartan as a comparator, group 5 (control)—7.5 mL/kg of distilled water.
The mark [4] stands for this setting: functional probe: Acetyl choline 40 μg/kg, day 29.
The mark [5] stands for this setting: functional probe: Initial, day 29, L-NAME 28 days.
Where [6] appears, read: functional probe: Sodium Nitroprusside, day 29.

SMILES strings stand for the structures.

`COC(=O)[C@@H](N)CCCNC(=N)N[N+](=O)[O-]` [L-NAME, L-NG-nitroarginine methyl ester]: the “Vascular reaction observed with EDV with acetyl choline” value in assay [1] (area under the curve of restoration of arterial pressure, Acetyl choline probe) was 3700.2 ± 536.9. For the same molecule, the “Vascular reaction observed with EIV with sodium nitroprusside” value in assay [1] (area under the curve of restoration of arterial pressure, Sodium Nitroprusside probe) was 11922.8 ± 1838.9. Further, the DAP in assay [1] (setting [4]) is given as 64.7 ± 4.3 mm HG; in assay [1] (setting [5]), 164.2 ± 5.9 mm HG; in assay [1] (setting [6]) it was 61.4 ± 4.4 mm HG. Also, the SAP in assay [1] (setting [4]) is 111.3 ± 7.4 mm, HG; in assay [1] (setting [5]), 204.8 ± 10 mm, HG; in assay [1] (setting [6]) it was 118.2 ± 9.9 mm, HG. Besides, the “CED (coefficient of endothelial dysfunction)” value in assay [1] (ratio of nitroprusside area to acetylcholine area) is recorded as 3.5 ± 0.5 relative units.

In the case of `CCCCc1nc(Cl)c(CO)n1Cc1ccc(-c2ccccc2-c2nn[nH]n2)cc1` [Losartan, losartan], the “Δ in comparison with the initial level, in mmHg” value in assay [2] (SBP after 28 days vs initial) is listed as −33 mmHg. Further, in assay [2] (SBP change after 28 days vs initial), the “% of the initial level” value is reported as −19%. The “Initial SBP in mmHg” value in assay [2] (before treatment) was 173.5 mmHg. For the same molecule, the “SBP after 28 days of medicine administration in mmHg” value in assay [2] (per orally once a day for 28 days) is on record as 140.5 mmHg. Besides, in assay [3], the Cardiac output was 55.31%, the Heart rate is given as −21.28%, the “Systolic volume (by Kubrick)” value was determined as 64.01% and the T-wave amplitude is recorded as −31.64%.
